{
  "source": "patent US6355685B1",
  "about": "“Method of treating anxiety disorders” (Knoll Pharmaceutical Company, priority 1999, dated 2002)",
  "system": "rat elevated plus-maze",
  "experiment": "rat elevated plus-maze (animal model of anxiety)",
  "assay_type": "in vivo",
  "conditions": "3 mg/kg po",
  "protocol": "This model was carried out as described in J. Neurosci. Methods 1985; 14:149-167.",
  "data": [
    {"smiles": "CC(C)CC(N(C)C)C1(c2ccc(Cl)cc2)CCC1.Cl.O", "note": "(stereo not shown) [N-{1-[1-(4-chlorophenyl)cyclobutyl]-3-methylbutyl}-N,N-dimethylamine hydrochloride monohydrate]", "values": [
      {"measurement": "open: total arm entry ratio", "value": "significant anxiolytic-like increase"}
    ]}
  ]
}
